This is an account of results in ChEMBL document CHEMBL1201862, “PubChem BioAssay data set” (2004).

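Compound exposure: 48 hours, 5 concentrations, 96-well plates. Here, GI50 denotes the concentration required for 50% inhibition of growth.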 Activity calls are given as the source filed them. No stated cut-off is given here; in the data, active = GI50 up to about 1.1 µM and inactive = higher.

Holding throughout (assay): growth of human tumour cells (NCI), 48 h
Assay [1] has as its system A549.
Assay [2] relates to COLO 205.
Assay [3] relates to HCT-15.
For assay [4], the system named is HT-29.
The test system of assay [5] is M14.
Assay [6] deals with MCF7.
For assay [7], the system named is MDA-MB-231.
Assay [8] concerns NCI-H460.
Assay [9] has as its system OVCAR-4.
Assay [10] has as its system PC-3.
For assay [11], the system named is RPMI-8226.
Assay [12] deals with SF-268.
For assay [13], the system named is SK-MEL-2.
Assay [14] relates to SK-MEL-5.
Assay [15] relates to SK-OV-3.
Assay [16] has as its system SN12C.
Assay [17] has as its system T47D.
Assay [18] has as its system TK-10.
Assay [19] has as its system UACC-257.
In assay [20] the test system is SR.

Take `COC(=O)C1=CSC2(S1)C(C(=O)OC)=CSc1c2ssc1=O` (centres undefined): the GI50 is 7.43 µM (inactive) in assay [1]; 1.87 µM (inactive) in assay [2]; 1.54 µM in [3]; 1.81 µM (inactive) in assay [4]; 2.5 µM (inactive) in assay [5]; 1.75 µM (inactive) in assay [6]. In addition, the GI50 in assay [7] was 1.85 µM (inactive); in assay [8] it was 6.15 µM (inactive); in assay [9], 1.15 µM (inactive); in [10] it was 2.22 µM (inactive); in assay [11], 1.55 µM (inactive); in assay [12], 2.69 µM (inactive). Moreover, the GI50 was 1.96 µM (inactive) in assay [13]; 2.24 µM (inactive) in [14]; 9.42 µM (inactive) in assay [15]; 2.12 µM (inactive) in [16]; 2.14 µM (inactive) in assay [17]; 2.42 µM (inactive) in assay [18]. Moreover, the GI50 in [19] was 1.87 µM (inactive).

Consider `C=C(C)[C@@H]1CCC2=C[C@H](OC2=O)[C@@]2(C)C[C@@H]2C(=O)/C=C(/C)C(=O)[C@H]1OC(C)=O`, for which the GI50 in [1] was 29.2 µM (inactive); in assay [2], 18.3 µM (inactive); in assay [3], 12.7 µM; in assay [4] it was 11.1 µM (inactive); in assay [5] it was 24.4 µM (inactive); in [6] it was 4.52 µM (inactive). Further, the GI50 in [7] was 36.4 µM (inactive); in assay [8] it was 30.1 µM (inactive); in assay [9], 13 µM (inactive); in [10], 13 µM (inactive); in assay [11], 4.12 µM (inactive); in assay [12], 28.1 µM (inactive). For the same molecule, the GI50 in assay [13] was 26.3 µM (inactive); in assay [14] it was 16.2 µM (inactive); in assay [15], > 51.9 µM (inactive); in assay [16] it was 21.5 µM (inactive); in assay [17], 5.64 µM (inactive); in [18] it was 24.5 µM (inactive). Further, in assay [19], the GI50 was 21.1 µM (inactive).

Turning to `COc1cccc2c1C(=O)c1c(O)c3c(c(O)c1C2=O)CC(O)(C(C)=O)CC3OC1OC(COC(C)=O)C(OC(C)=O)C(OC(C)=O)C1OC(C)=O` (centres undefined), the GI50 in [1] was > 100 µM (inactive); in assay [2], 79.4 µM (inactive); in [3], 47.2 µM; in [4] it was 25.7 µM (inactive); in assay [5], 43.8 µM (inactive); in [6] it was 65.2 µM (inactive). Moreover, the GI50 in assay [7] was 17.7 µM (inactive); in assay [8], > 100 µM (inactive); in assay [9], 18 µM (inactive); in [10] it was > 100 µM (inactive); in assay [12], 11.4 µM (inactive); in assay [13], 55.7 µM (inactive). Further, the GI50 in assay [14] was 23.9 µM (inactive); in [15], 32.7 µM (inactive); in assay [16], 48.3 µM (inactive); in [20] it was 5.38 µM (inactive); in [17] it was 38.8 µM (inactive); in assay [18], 22.9 µM (inactive). Besides, the GI50 in [19] is < 0.01 µM (active).

On to `C/C(=N\Nc1nc2ccccc2[nH]1)c1cnccn1`, for which the GI50 in assay [1] was 1.88 µM (inactive); in [2] it was 0.415 µM (active); in assay [3] it was 0.313 µM; in assay [4], 0.394 µM (active); in assay [5], 0.614 µM (active); in assay [6] it was 0.542 µM (active). For the same molecule, the GI50 was 2.88 µM (inactive) in [7]; 0.394 µM (active) in [8]; 0.617 µM (active) in assay [9]; 3.92 µM (inactive) in [10]; 0.533 µM (active) in assay [11]; 0.53 µM (active) in assay [12]. Further, the GI50 in assay [13] is 1.45 µM (inactive); in [14], 0.881 µM (active); in assay [15] it was 0.607 µM (active); in [16] it was 1.25 µM (inactive); in [17], 0.437 µM (active); in assay [18], 4.09 µM (inactive). The GI50 in [19] was 2.94 µM (inactive).

With `CC1=C(C)SC(=C2Sc3c(n(C)c(=O)[nH]c3=O)S2)S1`, the GI50 was > 100 µM (inactive) in [1]; > 100 µM (inactive) in [2]; above 100 µM in assay [3]; > 100 µM (inactive) in [4]; > 100 µM (inactive) in [5]; > 100 µM (inactive) in [6]. The GI50 in assay [7], in [8], in assay [9], in [10], in [11] and in assay [12] was > 100 µM (inactive) each time. The GI50 in assay [13], in [14], in [15], in assay [16], in [17] and in assay [18] was > 100 µM (inactive) each time. For the same molecule, the GI50 in assay [19] is > 100 µM (inactive).

For `COCN1C(=O)[C@@H]2C[C@@H](OC/C=C/CBr)CN2C(=O)c2ccccc21`, the GI50 was 17.1 µM (inactive) in assay [1]; 15.8 µM (inactive) in assay [2]; 17.9 µM in assay [3]; 20.2 µM (inactive) in [4]; 16.1 µM (inactive) in [5]; 5.78 µM (inactive) in assay [6]. Besides, the GI50 in [7] was 17.5 µM (inactive); in assay [9], 14.6 µM (inactive); in assay [10], 17.1 µM (inactive); in assay [12] it was 25.1 µM (inactive); in [13], 29.7 µM (inactive); in [14] it was 14.4 µM (inactive). Besides, the GI50 was 33.3 µM (inactive) in [15]; 14.1 µM (inactive) in assay [16]; 19.5 µM (inactive) in [17]; 19.3 µM (inactive) in [18]; 16.5 µM (inactive) in assay [19].

On to `CC1(O)C(=O)OC2CC([C@]3(O)CCC4[C@@H]5C[C@H]6O[C@]67[C@@H](O)C=CC(=O)[C@]7(C)C5CC[C@@]43C)C1(C)C2` (some centres undefined), for which the GI50 in assay [1] is 38.7 µM (inactive); in assay [2], 6.93 µM (inactive); in [3], 17.9 µM; in assay [4], 17.1 µM (inactive); in [5], 12.6 µM (inactive); in assay [7], 16.7 µM (inactive). Further, the GI50 is 30.5 µM (inactive) in assay [8]; 12.1 µM (inactive) in assay [9]; 20.1 µM (inactive) in [10]; 3.24 µM (inactive) in assay [11]; 16 µM (inactive) in assay [12]; 13.8 µM (inactive) in assay [13]. Besides, the GI50 was 16.9 µM (inactive) in [14]; 47.9 µM (inactive) in [15]; 16.5 µM (inactive) in assay [16]; 2.69 µM (inactive) in [20]; 5.97 µM (inactive) in [17]; 8.73 µM (inactive) in assay [18]. The GI50 in assay [19] is 11.5 µM (inactive).

For `CNC(=O)CNC(=O)CCC(=O)N(C)C`, the GI50 in [1] is > 100 µM (inactive); in assay [2], > 100 µM (inactive); in assay [3], above 100 µM; in [4] it was > 100 µM (inactive); in [5] it was > 100 µM (inactive); in assay [6] it was > 100 µM (inactive). The GI50 in assay [7], in assay [8], in assay [10], in assay [11], in assay [12] and in assay [13] was > 100 µM (inactive) each time. Moreover, the GI50 in [14], in assay [15], in [16], in assay [17], in [18] and in [19] was > 100 µM (inactive) throughout.

`CC1=C2C(=O)NN=C2CCN1c1ccc(Br)cc1`: the GI50 in assay [1] is > 100 µM (inactive); in assay [2], > 100 µM (inactive); in assay [3], 93.5 µM; in assay [4] it was > 100 µM (inactive); in [5], > 100 µM (inactive); in assay [6], > 100 µM (inactive). Besides, the GI50 in [7], in assay [8], in assay [9], in [10], in [12] and in assay [13] was > 100 µM (inactive) in each case. In addition, the GI50 in [14] is > 100 µM (inactive); in assay [15], > 100 µM (inactive); in assay [16], > 100 µM (inactive); in assay [17], 70.3 µM (inactive); in [18], > 100 µM (inactive); in assay [19], > 100 µM (inactive).

As for `O=C(c1cccs1)N(C(=S)OCCOc1ccccc1)c1ccccc1`, the GI50 in assay [1] is 28.1 µM (inactive); in assay [2], 24.8 µM (inactive); in assay [3], 27.4 µM; in assay [4], 34 µM (inactive); in assay [5], 17 µM (inactive); in assay [6] it was 20.2 µM (inactive). In addition, the GI50 was 24.3 µM (inactive) in assay [7]; 34.8 µM (inactive) in assay [8]; 29.8 µM (inactive) in [9]; 24.7 µM (inactive) in [10]; 20.9 µM (inactive) in [11]; 34.1 µM (inactive) in [12]. In addition, the GI50 in assay [13] was 21.3 µM (inactive); in assay [15] it was 30.3 µM (inactive); in assay [16], 22.1 µM (inactive); in [17], 35.8 µM (inactive); in assay [18], 41 µM (inactive); in assay [19] it was 29.4 µM (inactive).

For the molecule `Cc1ccc(Nc2nc(C)c(C(=O)CC(=O)C(=O)Nc3c(C)cccc3C(C)(C)C)s2)cc1`, the GI50 in [1] is > 100 µM (inactive); in assay [2], > 100 µM (inactive); in assay [3], above 100 µM; in assay [4] it was > 100 µM (inactive); in assay [5], > 100 µM (inactive); in assay [6], > 100 µM (inactive). Also, the GI50 was 42.9 µM (inactive) in assay [7]; > 100 µM (inactive) in [8]; > 100 µM (inactive) in assay [9]; > 100 µM (inactive) in [10]; > 100 µM (inactive) in assay [11]; > 100 µM (inactive) in assay [12]. Besides, the GI50 in [13], in assay [14], in [15], in assay [16], in assay [17] and in assay [18] was > 100 µM (inactive) in each case. Further, the GI50 in assay [19] was > 100 µM (inactive).
